Results: publication PMC10291549, “Reaction Behavior of [1,3-Diethyl-4,5-diphenyl-1H-imidazol-2-ylidene] Containing Gold(I/III) Complexes against Ingredients of the Cell Culture Medium and the Meaning on the Potential Use for Cancer Eradication Therapy” (Journal of Medicinal Chemistry, 2023)
Where two headings read alike, the source gives them in different places.

Columns and labels:
K562 cells = format: cell-based; conditions: 72 h incubation; mean ± SD of two or three independent experiments; read-out: metabolic activity IC50, K562
[1] = test system: MCF-7TamR cells (Tamoxifen-resistant subline); format: cell-based, human; conditions: 72 h incubation; mean ± SD of two or three independent experiments; read-out: metabolic activity IC50, MCF-7TamR
[2] = test system: K562-R cells (Doxorubicin-resistant subclone); format: cell-based; conditions: 72 h incubation; mean ± SD of two or three independent experiments; read-out: metabolic activity IC50, K562-R
MCF-7 cells = format: cell-based, human; conditions: 72 h incubation; mean ± SD of two or three independent experiments; read-out: metabolic activity IC50, MCF-7
[3] = test system: A549-R cells (Taxol/Paclitaxel-resistant subclone); format: cell-based; conditions: 72 h incubation; mean ± SD of two or three independent experiments; read-out: metabolic activity IC50, A549-R
A549 cells = format: cell-based; conditions: 72 h incubation; mean ± SD of two or three independent experiments; read-out: metabolic activity IC50, A549
A2780 cells = format: cell-based, human
IGROV1 cells = format: cell-based; conditions: 72 h incubation; mean ± SD of two or three independent experiments; read-out: metabolic activity IC50, IGROV1
[4] = test system: A2780cis cells (Cisplatin-resistant); format: cell-based, human; conditions: 72 h incubation; mean ± SD of two or three independent experiments; read-out: metabolic activity IC50, A2780cis
IGROV1-CSC cells = format: cell-based; conditions: 72 h incubation; mean ± SD of two or three independent experiments; read-out: metabolic activity IC50, IGROV1-CSC
[5] = HPLC reactivity study in chloride containing ACN/water; format: physicochemical; conditions: for formation of 8 / conversion to 5: t0h (1.5 min); for conversion to 5: ACN/water 50/50, 6.0 g/L NaCl + 0.4 g/L KCl, 0.5 mM complex, rt
[6] = HPLC degradation study in ACN/RPMI 1640 cell culture medium; conditions: for conversion to 5: ACN/RPMI 1640 50/50 (without FCS)
[7] = test system: SV-80 lung fibroblast cells; assay: Modified MTT assay in noncancerous cells; format: cell-based
[8] = HPLC reactivity study with GSH in ACN/water; format: physicochemical; conditions: 20 equiv GSH; for substitution to (NHC)Au(I)-GSH adduct 12: t0h (1.5 min)
Experimental: (§1) All nucleophiles (chloride, amino acids, and GSH) were separately reacted with 5–11 in ACN/water = 50/50 (v/v) mixtures at a complex concentration 0.5 mM. This solvent composition was chosen to prevent precipitation of the complex and the formed degradation products.
(§2) Amino acids, as well as GSH, were used in 20-fold excess, as realized at a complex concentration of 10 μM in the cell culture medium. Thereto, the respective complex, dissolved in ACN (1 mM), was combined with the same amount of aqueous solution of the nucleophile (20 mM).
(§3) The mixture was then incubated for 24 h at rt and monitored at various time points via HPLC using an RP-C18 column and gradient elution (70/30 (v/v) to 90/10 (v/v)) of ACN/water (0.1% trifluoroacetic acid (TFA)).
(§4) Experiments in ACN/water: 1.0 mM solutions of the respective complex were prepared in ACN and diluted with HPLC-grade water (50/50, (v/v)) containing the double-concentrated amount of respective amino acid (20 mM), GSH (20 mM), sodium ascorbate (20 mM), or NADPH (20 mM). As a chloride source, an aqueous solution of KCl 0.8 g/L and NaCl 12 g/L was used. In each case, a final complex concentration of 0.5 mM was achieved. The solutions were incubated for 24 h at rt. For the experiments with RPMI 1640, the aqueous phase was replaced by a cell culture medium.
(§5) Samples (20 μL each) were taken at appropriate time points (t = 0 (1.5 min), 0.5, 1, 1.5, 2, 8, 12, and 24 h) and analyzed with a Shimadzu prominence HPLC system. The mobile phase consisted of ACN (HPLC-grade) and water (HPLC-grade) with 0.1% TFA. To achieve a separation of the compounds, gradient elution from (70/30 (v/v) to 90/10 (v/v)) of ACN/water (0.1% trifluoroacetic acid (TFA)) was used with a flow rate of 1 mL/min at an oven temperature of 35 °C. All solvents have been degassed before use. The injection volume was 20 μL, and the detection wavelength was set at 235 nm, to detect the gold complexes and the amino acids in the chromatogram.

[9] = HPLC reactivity study with non-thiol containing amino acids in ACN/water; format: physicochemical; conditions: for formation of 8: t24h, 0.5 mM
Experimental: as §1, §2, §3, §4, §5

[10] = FCS influence on stability of 7 in RPMI 1640 (protein binding, HPLC); format: in vitro ADME; conditions: 4 h, 37 °C
Experimental: The complex (conc. 30 μM) dissolved in RPMI 1640 medium supplemented with 10% FCS was incubated for 4 h at 37 °C in the dark. Subsequently, the proteins were precipitated with ACN and the supernatant was dried by lyophilization. The remaining complexes were extracted from the lyophilizate with DCM. The organic layer was evaporated, and the residue was finally dissolved in 1 mL of ACN. This solution was then analyzed by HPLC as described above.
To 11 mL of RPMI 1640 including 10% FCS, 11 μL of a freshly prepared 3 mM DMF solution of 7 was added. The solution was then incubated for 4 h at 37 °C in the dark. Proteins were precipitated with 33 mL of ACN. The mixture was cooled to −30 °C and stored for 2 h at −20 °C. Subsequently, the supernatant was separated by centrifugation (3000 rpm), collected, and dried by lyophilization. The lyophilizate was extracted three times with 5 mL of DCM and finally dried under reduced pressure. The residue was taken up in 1 mL of ACN, and 30 μL was analyzed by the HPLC method described above. Peak area was used for quantification. The calibrations of 5, 7, and 8 were obtained by injecting 30 μL of the respective solution of pure substances in ACN at a concentration of 1–30 μM (R^2 > 0.99).

[11] = 72 h incubation, mean ± SD of two or three independent experiments, read-out: metabolic activity IC50, A2780
[12] = t24h, chloride containing ACN/water 50/50, 0.5 mM
[13] = t0h, ACN/RPMI 1640 50/50, 0.5 mM
[14] = t24h, ACN/RPMI 1640 50/50, 0.5 mM
[15] = chloride containing ACN/water 50/50, 0.5 mM
[16] = t0h, chloride containing ACN/water 50/50, 0.5 mM

Row | Compound | IC50 (K562 cells) | IC50 [1] | IC50 [2] | IC50 (MCF-7 cells) | IC50 [3] | IC50 (A549 cells) | IC50 (A2780 cells; [11]) | IC50 (IGROV1 cells) | IC50 [4] | IC50 (IGROV1-CSC cells) | formation of 8 (ligand scrambling / reduction) [5, 12] | formation of 8 [6, 13] | formation of 8 [6, 14] | other results
1 | CC(=O)OC[C@H]1O[C@@H]([S-])[C@H](OC(C)=O)[C@@H](OC(C)=O)[C@@H]1OC(C)=O.CCP(CC)CC.[Au+] [Auranofin, reference compound] | 3.66 ± 0.27 µM | 1.14 ± 0.46 µM | 3.75 ± 0.38 µM | 3.15 ± 0.36 µM | 4.42 ± 0.44 µM | 4.26 ± 0.45 µM | – | – | – | – | – | – | – | –
2 | N.N.[Cl][Pt][Cl] [Cisplatin, reference compound] | 7.91 ± 0.78 µM | 4.13 ± 0.59 µM | 9.93 ± 0.77 µM | 7.18 ± 1.28 µM | 6.99 ± 0.57 µM | 6.67 ± 0.63 µM | 6.65 ± 1.42 µM | 2.84 ± 0.76 µM | 9.8 ± 0.64 µM | 3.76 ± 0.4 µM | – | – | – | –
3 | CCn1c(-c2ccccc2)c(-c2ccccc2)n(CC)[c]1=[Au+]([Cl])([Cl])=[c]1n(CC)c(-c2ccccc2)c(-c2ccccc2)n1CC.F[P-](F)(F)(F)(F)F [Complex 9, Bis[1,3-diethyl-4,5-diphenyl-1H-imidazol-2-yliden]dichloridogold(III) Hexafluorophosphate] | 0.55 ± 0.16 µM | 0.26 ± 0.05 µM | 1.43 ± 0.29 µM | 0.24 ± 0.05 µM | 0.21 ± 0.02 µM | 0.18 ± 0.01 µM | 0.25 ± 0.04 µM | 0.7 ± 0.38 µM | 0.05 ± 0.02 µM | 1.74 ± 0.19 µM | 12.5% | 5.0% | 36.3% | –
4 | CCn1c(-c2ccccc2)c(-c2ccccc2)n(CC)[c]1=[Au+]([Br])([Br])=[c]1n(CC)c(-c2ccccc2)c(-c2ccccc2)n1CC.F[P-](F)(F)(F)(F)F [Complex 10, Bis[1,3-diethyl-4,5-diphenyl-1H-imidazol-2-ylidene]dibromidogold(III) Hexafluorophosphate] | 0.49 ± 0.12 µM | 0.29 ± 0.18 µM | 1.59 ± 0.3 µM | 0.22 ± 0.07 µM | 0.25 ± 0.04 µM | 0.2 ± 0.02 µM | 0.29 ± 0.05 µM | 0.44 ± 0.19 µM | 0.1 ± 0.04 µM | 1.29 ± 0.23 µM | 5.1% | 9.3% | 71.1% | formation of 8 [5, 15]: 2.2%; substitution to 9 [5, 16]: 24.0%; substitution to 9 [5, 12]: 54.4%; formation of 9 (Br/Cl exchange) [6, 13]: 42.3%; amount of 9 [6, 14]: 18.2%; remaining amount of the complex itself [6, 14]: 10.7%
5 | CCn1c(-c2ccccc2)c(-c2ccccc2)n(CC)[c]1=[Au][S]C[C@H](NC(=O)CC[C@H](N)C(=O)O)C(=O)NCC(=O)O [Complex 12] | – | – | – | – | – | – | – | – | – | – | – | – | – | IC50 relative to 5 (and 6) in A2780 cells, times higher / fold less active (A2780 cells): about 2 fold; IC50 relative to 5 (and 6) in A2780 cells, times higher / fold less active (A2780 cells; listed as (NHC)Au(I)-GSH): 2 fold; IC50 (A2780 cells; preliminary experiment, read-out: cell growth IC50, A2780): 15.9 µM
6 | Bis[1,3-diethyl-4,5-diphenyl-1H-imidazol-2-ylidene]diiodidogold(III) Hexafluorophosphate [Complex 11] | 0.97 ± 0.26 µM | 0.2 ± 0.07 µM | 2.26 ± 1.08 µM | 0.19 ± 0.05 µM | 0.27 ± 0.04 µM | 0.25 ± 0.02 µM | 0.28 ± 0.06 µM | 1.28 ± 0.93 µM | 0.02 ± 0.01 µM | 2.45 ± 0.97 µM | – | – | – | substitution to 9 [5, 16]: 0.4%; time to complete conversion to 8 ([6]; ACN/RPMI 1640 50/50, 0.5 mM): ≤ 8 h
7 | Bromido[1,3-diethyl-4,5-diphenyl-1H-imidazol-2-ylidene]gold(I) [Complex 6] | > 10 µM | 4.64 ± 0.44 µM | > 10 µM | 4.54 ± 0.52 µM | > 10 µM | > 10 µM | 9.38 ± 0.8 µM | 5.78 ± 0.9 µM | 2.87 ± 0.33 µM | 8.78 ± 0.6 µM | – | – | – | metabolic activity (remaining) in SV-80 cells ([7]; at 10 μM, mean of three independent experiments): 20%; conversion to 5 [5]: quantitatively; substitution to (NHC)Au(I)-GSH adduct 12 ([8]; ACN/water 50/50, 0.5 mM): quantitatively; conversion to 5 ([6]; t0h, 0.5 mM): immediately converted
8 | Iodido[1,3-diethyl-4,5-diphenyl-1H-imidazol-2-ylidene]gold(I) [Complex 7] | 0.72 ± 0.3 µM | 1.63 ± 0.79 µM | 1.53 ± 1.04 µM | 0.48 ± 0.08 µM | 1.21 ± 0.36 µM | 1.12 ± 0.17 µM | 1.43 ± 0.4 µM | 1.94 ± 0.35 µM | 0.4 ± 0.06 µM | 0.47 ± 0.13 µM | 18.9% | 0.8% | 23.1% | ratio of 7/8 ([9]; 20 equiv arginine (Arg), after 30 min, stable until 24 h): 90/10; reaction with amino acids ([9]; 20 equiv non-thiol containing amino acid, ACN/water 50/50): did not react; formation of 8 ([9]; 20 equiv glutamic acid (Glu), ACN/water 50/50): 31.6%; formation of 8 ([9]; 20 equiv methionine (Met), ACN/water 50/50): 27.5%; formation of 8 ([9]; pure ACN/water 50/50): 31.2%; metabolic activity (remaining) in SV-80 cells ([7]; at 1.5 μM): 77%; conversion to 5 [5]: 13.3%; formation of 8 [5, 15]: 3.6%; quantity of 5 formed [5, 12]: stayed constant; concentration in the free fraction after incubation of 7 ([10]; 7 (30 μM) in RPMI 1640 + 10% FCS, dark, protein precipitation with ACN, from HPLC peak areas): 780 nM; protein-bound fraction ([10]; 7 and its degradation products in RPMI 1640 + 10% FCS): about 50%; start of ligand scrambling ([8]; time-dependent analysis): 1 h; substitution to (NHC)Au(I)-GSH adduct 12 ([8]; ACN/water 50/50, 0.5 mM): 9.7%; formation of 8 ([8]; t24h, ACN/water 50/50, 0.5 mM): 9.8%; proportion of 12 ([8]; t24h, ACN/water 50/50, 0.5 mM): 4.7%; amount of 5 formed ([6]; during 24 h, ACN/RPMI 1640 50/50): remained constant; conversion to 5 ([6]; t0h, 0.5 mM): 14.3%; formation of GSH-adduct 12 [6, 14]: No GSH-adduct 12 could be detected
